Data: ChEMBL document CHEMBL4038335, “Neuroactive Steroids. 2. 3α-Hydroxy-3β-methyl-21-(4-cyano-1H-pyrazol-1'-yl)-19-nor-5β-pregnan-20-one (SAGE-217): A Clinical Next Generation Neuroactive Steroid Positive Allosteric Modulator of the (γ-Aminobutyric Acid)A Receptor” (J Med Chem, 2017)
Values after ≈ are worked out from the molar mass of the structure shown.

Key:
[1] = Clearance in dog hepatic microsomes at 10 uM preincubated for 5 mins followed by NADPH addition measured over 60 mins by HPLC-MS/MS analysis; assay type: ADME, Canis lupus familiaris, Liver, Microsome; conditions: 1 h
[2] = Protein binding in dog plasma at 10 uM after 6 hrs by equilibrium dialysis; assay type: ADME, cell-free, Canis lupus familiaris; conditions: read-out: PPB (converted)
[3] = Clearance in human hepatocytes at 10 uM preincubated for 5 mins […] measured over 60 mins by HPLC-MS/MS analysis; assay type: ADME, cell-based, Hepatocyte; conditions: 1 h
Cytochrome P450 2C9 = Cytochrome P450 2C9 (Homo sapiens, UniProt P11712); assay: Inhibition of CYP2C9 (unknown origin); assay type: ADME
[4] = Oral bioavailability in CD1 mouse at 20 mg/kg measured up to 8 hrs post dose by LC/MS-MS analysis; assay type: ADME, organism-based; conditions: in vivo
[5] = target: Kv channel-interacting protein 2/Potassium voltage-gated channel subfamily D member 3 (Homo sapiens, UniProt Q9NS61+Q9UK17); assay: Inhibition of Kv4.3(unknown origin)/KChIP2.2 (unknown origin) by patch clamp assay
[6] = Clearance in CD1 mouse at 5 mg/kg, iv or 20 mg/kg, po measured up to 8 hrs post dose by LC/MS-MS analysis; assay type: ADME, organism-based; conditions: in vivo
[7] = target: GABA-A receptor alpha-4/beta-3/delta (Homo sapiens, UniProt P28472+P48169+); assay: Positive allosteric modulation of GABAA receptor alpha4beta3delta (unknown origin) expressed in CHO cells assessed as potentiation of GABA-mediated increase in channel current under holding potential at -80 mV at 0.01 to 10 uM preincubated for 30 secs followed by GABA stimulation for 2 secs by manual patch clamp assay relative to GABA; assay type: cell-based; conditions: 2 s
[8] = target: GABA-A receptor; alpha-1/beta-2/gamma-2 (Homo sapiens) (UniProt P14867+P47870+P18507); assay: Positive allosteric modulation of GABAA receptor alpha1beta2gamma2 (unknown origin) expressed in mouse LTK cells assessed as potentiation of GABA-mediated increase in channel current under holding potential at -80 mV at 0.01 to 10 uM preincubated for 30 secs followed by GABA stimulation for 2 secs by automated patch clamp assay relative to GABA; assay type: cell-based
[9] = Clearance in mouse hepatocytes at 10 uM preincubated for 5 mins […] measured over 60 mins by HPLC-MS/MS analysis; assay type: ADME, cell-based, Hepatocyte; conditions: read-out: CLH (converted)
[10] = Displacement of [35S]TBPS from GABA-A receptor in Sprague-Dawley rat cerebral cortex cell membranes after 90 mins in presence of GABA by liquid scintillation counting
[11] = target: Potassium voltage-gated channel subfamily A member 5 (Homo sapiens, UniProt P22460); assay: Inhibition of Kv1.5 (unknown origin) by patch clamp assay
[12] = target: Voltage-gated potassium channel, IKs; KCNQ1(Kv7.1)/KCNE1(MinK) (Homo sapiens, UniProt P15382+P51787); assay: Inhibition of KCNQ1/minK (unknown origin) by patch clamp assay
Cytochrome P450 2D6 = Cytochrome P450 2D6 (Homo sapiens, UniProt P10635); assay: Inhibition of CYP2D6 (unknown origin); assay type: ADME
[13] = target: Gamma-aminobutyric acid receptor subunit alpha-4/beta3/delta (Homo sapiens, UniProt O14764+P28472+P48169); assay: Positive allosteric modulation of GABAA receptor alpha4beta3delta (unknown origin) expressed in CHO cells assessed as potentiation of GABA-mediated increase in channel current under holding potential at -80 mV preincubated for 30 secs followed by GABA stimulation for 2 secs by manual patch clamp assay; assay type: cell-based
[14] = Oral bioavailability in Beagle dog at 20 mg/kg measured up to 8 hrs post dose by LC/MS-MS analysis; assay type: ADME, organism-based, Canis lupus familiaris; conditions: in vivo
[15] = Ratio of drug level in Sprague-Dawley rat brain to plasma at 5 mg/kg, iv measured at 30 mins post dose by LC/MS-MS analysis; assay type: ADME, organism-based; conditions: read-out: BPR
[16] = Clearance in mouse hepatic microsomes at 10 uM preincubated for 5 mins followed by NADPH addition measured over 60 mins by HPLC-MS/MS analysis; assay type: ADME, Microsome; conditions: liver microsomes
[17] = target: Glycine receptor subunit alpha-1 (Homo sapiens) (UniProt P23415); assay: Binding affinity to human glycine alpha 1 receptor expressed in HEK293 cells at 10 uM by IonFlux based assay; assay type: cell-based
[18] = Clearance in rat hepatic microsomes at 10 uM preincubated for 5 mins followed by NADPH addition measured over 60 mins by HPLC-MS/MS analysis; assay type: ADME, Microsome; conditions: liver microsomes
[19] = Protein binding in rat plasma at 10 uM after 6 hrs by equilibrium dialysis; assay type: ADME, cell-free; conditions: read-out: PPB (converted)
[20] = Oral bioavailability in Sprague-Dawley rat at 20 mg/kg measured up to 8 hrs post dose by LC/MS-MS analysis; assay type: ADME, organism-based; conditions: in vivo
[21] = Protein binding in mouse plasma at 10 uM after 6 hrs by equilibrium dialysis; assay type: ADME, cell-free; conditions: read-out: PPB
[22] = Clearance in rat hepatocytes at 10 uM preincubated for 5 mins […] measured over 60 mins by HPLC-MS/MS analysis; assay type: ADME, cell-based, Hepatocyte; conditions: 1 h
[23] = target: Inward rectifier potassium channel 2 (Homo sapiens, UniProt P63252); assay: Inhibition of Kir2.1 (unknown origin) by patch clamp assay
[24] = Protein binding in human plasma at 10 uM after 6 hrs by equilibrium dialysis; assay type: ADME, cell-free; conditions: read-out: PPB (converted)
[25] = Clearance in Beagle dog at 5 mg/kg, iv or 20 mg/kg, po measured up to 8 hrs post dose by LC/MS-MS analysis; assay type: ADME, organism-based, Canis lupus familiaris; conditions: in vivo
[26] = target: Sodium channel protein type 5 subunit alpha (Homo sapiens, UniProt Q14524); assay: Inhibition of Nav1.5 (unknown origin) by patch clamp assay
[27] = target: Sigma non-opioid intracellular receptor 1 (Homo sapiens) (UniProt Q99720); assay: Displacement of [3H](+)pentazocine from human sigma1-receptor at 10 uM after 120 mins by scintillation counting
[28] = Thermodynamic aqueous solubility of compound at 10 uM sonicated for 1 min followed by incubation for 1 hr by HPLC-MS/MS; assay type: physicochemical; conditions: buffer; read-out: Therm_solubility
Mus musculus = assay: Anticonvulsant activity in PTZ-induced seizure mouse model at 0.3 to 3 mg/kg, ip; assay type: functional
[29] = target: Potassium/sodium hyperpolarization-activated cyclic nucleotide-gated channel 2 (Homo sapiens, UniProt Q9UL51); assay: Inhibition of HCN2 (unknown origin) by patch clamp assay
Cytochrome P450 3A4 = Cytochrome P450 3A4 (Homo sapiens, UniProt P08684); assay: Inhibition of CYP3A4 (unknown origin); assay type: ADME
[30] = target: Voltage-dependent L-type calcium channel subunit alpha-1C (Homo sapiens, UniProt Q13936); assay: Inhibition of Cav1.2 (unknown origin) by patch clamp assay
[31] = Clearance in human hepatic microsomes at 10 uM preincubated for 5 mins followed by NADPH addition measured over 60 mins by HPLC-MS/MS analysis; assay type: ADME, Microsome; conditions: liver microsomes
Cytochrome P450 2C19 = Cytochrome P450 2C19 (Homo sapiens, UniProt P33261); assay: Inhibition of CYP2C19 (unknown origin); assay type: ADME
Canis familiaris = assay: Clearance in Beagle dog at 5 mg/kg, iv or 20 mg/kg, po measured up to 8 hrs post dose by LC/MS-MS analysis relative to hepatic blood flow; assay type: ADME, organism-based, Canis lupus familiaris; conditions: in vivo
Cytochrome P450 1A2 = Cytochrome P450 1A2 (Homo sapiens, UniProt P05177); assay: Inhibition of CYP1A2 (unknown origin); assay type: ADME
[32] = Clearance in Sprague-Dawley rat at 5 mg/kg, iv or 20 mg/kg, po measured up to 8 hrs post dose by LC/MS-MS analysis; assay type: ADME, organism-based; conditions: in vivo
[33] = Clearance in dog hepatocytes at 10 uM preincubated for 5 mins […] measured over 60 mins by HPLC-MS/MS analysis; assay type: ADME, cell-based, Canis lupus familiaris, Hepatocyte; conditions: 1 h
[34] = target: Voltage-gated inwardly rectifying potassium channel KCNH2 (Homo sapiens, UniProt Q12809); assay: Inhibition of human ERG by patch clamp assay
Cytochrome P450 2B6 = Cytochrome P450 2B6 (Homo sapiens, UniProt P20813); assay: Inhibition of CYP2B6 (unknown origin); assay type: ADME
[35] = Lipophilicity, logD of compound at 20 uM at pH 7.4 by HPLC/MS-MS analysis; assay type: physicochemical; conditions: buffer
[36] = target: Transient receptor potential cation channel subfamily V member 1 (Homo sapiens) (UniProt Q8NER1); assay: Antagonist activity at human TRPV1 expressed in CHOK1 cells assessed as inhibition of capsaicin-induced Ca2+ flux at 10 uM by spectrophotometric analysis; assay type: cell-based

Sequence of Potassium/sodium hyperpolarization-activated cyclic nucleotide-gated channel 2 (Q9UL51 whole entry): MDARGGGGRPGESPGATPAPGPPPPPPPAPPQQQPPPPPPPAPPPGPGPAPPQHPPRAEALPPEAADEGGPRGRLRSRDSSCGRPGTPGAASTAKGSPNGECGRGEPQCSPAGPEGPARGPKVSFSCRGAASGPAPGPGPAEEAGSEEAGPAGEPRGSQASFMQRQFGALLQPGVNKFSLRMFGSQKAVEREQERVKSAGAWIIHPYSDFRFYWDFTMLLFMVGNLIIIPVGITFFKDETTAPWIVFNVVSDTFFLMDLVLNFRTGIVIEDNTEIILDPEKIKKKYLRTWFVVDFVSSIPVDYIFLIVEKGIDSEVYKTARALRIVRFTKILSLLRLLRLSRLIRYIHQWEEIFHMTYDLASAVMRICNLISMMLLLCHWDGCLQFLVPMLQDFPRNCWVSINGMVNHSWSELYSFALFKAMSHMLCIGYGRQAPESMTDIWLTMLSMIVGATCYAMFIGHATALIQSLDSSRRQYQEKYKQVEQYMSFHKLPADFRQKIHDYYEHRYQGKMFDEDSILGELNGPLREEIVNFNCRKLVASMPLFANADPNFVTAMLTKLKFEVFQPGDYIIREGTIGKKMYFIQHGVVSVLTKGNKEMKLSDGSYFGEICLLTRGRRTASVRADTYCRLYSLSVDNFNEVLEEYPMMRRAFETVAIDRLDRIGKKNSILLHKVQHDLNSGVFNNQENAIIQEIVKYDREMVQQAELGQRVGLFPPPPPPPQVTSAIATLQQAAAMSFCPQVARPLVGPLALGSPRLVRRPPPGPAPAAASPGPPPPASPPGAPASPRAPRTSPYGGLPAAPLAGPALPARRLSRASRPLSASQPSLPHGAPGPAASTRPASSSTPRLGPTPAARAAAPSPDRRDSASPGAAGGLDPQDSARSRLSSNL
Sequence of Cytochrome P450 1A2 (P05177 whole entry): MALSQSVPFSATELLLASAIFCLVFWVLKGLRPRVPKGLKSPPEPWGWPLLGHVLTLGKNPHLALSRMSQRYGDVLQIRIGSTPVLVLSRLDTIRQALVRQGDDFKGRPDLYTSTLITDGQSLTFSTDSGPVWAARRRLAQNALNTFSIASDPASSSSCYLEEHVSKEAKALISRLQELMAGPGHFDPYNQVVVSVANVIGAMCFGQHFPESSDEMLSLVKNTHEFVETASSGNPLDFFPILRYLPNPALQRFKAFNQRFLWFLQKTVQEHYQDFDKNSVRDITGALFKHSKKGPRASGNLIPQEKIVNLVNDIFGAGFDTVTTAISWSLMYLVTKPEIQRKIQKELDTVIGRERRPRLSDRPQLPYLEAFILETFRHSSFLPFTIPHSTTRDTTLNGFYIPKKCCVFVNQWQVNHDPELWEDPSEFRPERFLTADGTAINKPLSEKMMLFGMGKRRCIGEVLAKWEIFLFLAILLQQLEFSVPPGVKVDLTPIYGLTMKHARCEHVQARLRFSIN
Sequence of Cytochrome P450 2C9 (P11712 whole entry): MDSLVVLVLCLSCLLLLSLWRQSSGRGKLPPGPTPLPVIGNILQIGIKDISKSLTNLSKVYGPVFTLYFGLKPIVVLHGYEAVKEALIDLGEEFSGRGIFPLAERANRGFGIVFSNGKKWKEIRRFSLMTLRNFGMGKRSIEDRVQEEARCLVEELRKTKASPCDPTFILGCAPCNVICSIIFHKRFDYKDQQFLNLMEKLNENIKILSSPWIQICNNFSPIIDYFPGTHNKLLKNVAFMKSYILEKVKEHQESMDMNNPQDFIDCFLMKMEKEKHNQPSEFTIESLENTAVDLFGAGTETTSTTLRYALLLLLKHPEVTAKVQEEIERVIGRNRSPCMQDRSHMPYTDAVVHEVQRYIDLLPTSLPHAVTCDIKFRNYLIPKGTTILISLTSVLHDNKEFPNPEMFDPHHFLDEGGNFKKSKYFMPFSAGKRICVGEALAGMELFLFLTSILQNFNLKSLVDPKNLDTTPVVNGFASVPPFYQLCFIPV
Sequence of Voltage-gated inwardly rectifying potassium channel KCNH2 (Q12809 whole entry): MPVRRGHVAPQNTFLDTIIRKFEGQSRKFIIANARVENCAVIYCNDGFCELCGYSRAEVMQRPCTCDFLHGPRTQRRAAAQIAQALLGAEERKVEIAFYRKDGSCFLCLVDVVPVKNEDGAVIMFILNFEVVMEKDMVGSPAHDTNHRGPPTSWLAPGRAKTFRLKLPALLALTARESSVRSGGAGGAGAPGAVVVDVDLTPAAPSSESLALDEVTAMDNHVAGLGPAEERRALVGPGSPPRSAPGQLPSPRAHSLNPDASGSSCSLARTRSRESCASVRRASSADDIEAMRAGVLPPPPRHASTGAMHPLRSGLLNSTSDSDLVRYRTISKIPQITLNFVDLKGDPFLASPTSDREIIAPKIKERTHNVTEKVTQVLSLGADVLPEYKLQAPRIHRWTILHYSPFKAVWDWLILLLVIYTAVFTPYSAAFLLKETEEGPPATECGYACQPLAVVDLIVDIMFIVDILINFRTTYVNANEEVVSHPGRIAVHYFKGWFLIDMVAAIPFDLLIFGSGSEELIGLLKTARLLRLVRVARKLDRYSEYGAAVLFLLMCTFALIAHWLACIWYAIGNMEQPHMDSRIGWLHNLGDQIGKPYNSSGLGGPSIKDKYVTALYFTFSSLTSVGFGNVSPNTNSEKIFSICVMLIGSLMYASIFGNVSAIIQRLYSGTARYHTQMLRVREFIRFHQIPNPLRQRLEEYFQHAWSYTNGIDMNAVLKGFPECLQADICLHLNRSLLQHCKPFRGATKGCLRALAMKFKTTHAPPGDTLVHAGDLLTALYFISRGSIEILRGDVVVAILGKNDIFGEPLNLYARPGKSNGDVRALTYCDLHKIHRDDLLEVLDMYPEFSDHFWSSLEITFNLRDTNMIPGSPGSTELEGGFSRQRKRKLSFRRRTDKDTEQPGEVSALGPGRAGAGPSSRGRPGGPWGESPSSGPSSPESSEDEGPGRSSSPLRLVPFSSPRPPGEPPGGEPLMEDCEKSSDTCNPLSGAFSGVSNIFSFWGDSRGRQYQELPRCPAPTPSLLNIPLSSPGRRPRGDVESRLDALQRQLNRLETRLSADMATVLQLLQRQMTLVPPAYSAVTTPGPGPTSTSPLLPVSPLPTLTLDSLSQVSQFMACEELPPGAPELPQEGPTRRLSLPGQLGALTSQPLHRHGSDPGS
Sequence of Sodium channel protein type 5 subunit alpha (Q14524 whole entry): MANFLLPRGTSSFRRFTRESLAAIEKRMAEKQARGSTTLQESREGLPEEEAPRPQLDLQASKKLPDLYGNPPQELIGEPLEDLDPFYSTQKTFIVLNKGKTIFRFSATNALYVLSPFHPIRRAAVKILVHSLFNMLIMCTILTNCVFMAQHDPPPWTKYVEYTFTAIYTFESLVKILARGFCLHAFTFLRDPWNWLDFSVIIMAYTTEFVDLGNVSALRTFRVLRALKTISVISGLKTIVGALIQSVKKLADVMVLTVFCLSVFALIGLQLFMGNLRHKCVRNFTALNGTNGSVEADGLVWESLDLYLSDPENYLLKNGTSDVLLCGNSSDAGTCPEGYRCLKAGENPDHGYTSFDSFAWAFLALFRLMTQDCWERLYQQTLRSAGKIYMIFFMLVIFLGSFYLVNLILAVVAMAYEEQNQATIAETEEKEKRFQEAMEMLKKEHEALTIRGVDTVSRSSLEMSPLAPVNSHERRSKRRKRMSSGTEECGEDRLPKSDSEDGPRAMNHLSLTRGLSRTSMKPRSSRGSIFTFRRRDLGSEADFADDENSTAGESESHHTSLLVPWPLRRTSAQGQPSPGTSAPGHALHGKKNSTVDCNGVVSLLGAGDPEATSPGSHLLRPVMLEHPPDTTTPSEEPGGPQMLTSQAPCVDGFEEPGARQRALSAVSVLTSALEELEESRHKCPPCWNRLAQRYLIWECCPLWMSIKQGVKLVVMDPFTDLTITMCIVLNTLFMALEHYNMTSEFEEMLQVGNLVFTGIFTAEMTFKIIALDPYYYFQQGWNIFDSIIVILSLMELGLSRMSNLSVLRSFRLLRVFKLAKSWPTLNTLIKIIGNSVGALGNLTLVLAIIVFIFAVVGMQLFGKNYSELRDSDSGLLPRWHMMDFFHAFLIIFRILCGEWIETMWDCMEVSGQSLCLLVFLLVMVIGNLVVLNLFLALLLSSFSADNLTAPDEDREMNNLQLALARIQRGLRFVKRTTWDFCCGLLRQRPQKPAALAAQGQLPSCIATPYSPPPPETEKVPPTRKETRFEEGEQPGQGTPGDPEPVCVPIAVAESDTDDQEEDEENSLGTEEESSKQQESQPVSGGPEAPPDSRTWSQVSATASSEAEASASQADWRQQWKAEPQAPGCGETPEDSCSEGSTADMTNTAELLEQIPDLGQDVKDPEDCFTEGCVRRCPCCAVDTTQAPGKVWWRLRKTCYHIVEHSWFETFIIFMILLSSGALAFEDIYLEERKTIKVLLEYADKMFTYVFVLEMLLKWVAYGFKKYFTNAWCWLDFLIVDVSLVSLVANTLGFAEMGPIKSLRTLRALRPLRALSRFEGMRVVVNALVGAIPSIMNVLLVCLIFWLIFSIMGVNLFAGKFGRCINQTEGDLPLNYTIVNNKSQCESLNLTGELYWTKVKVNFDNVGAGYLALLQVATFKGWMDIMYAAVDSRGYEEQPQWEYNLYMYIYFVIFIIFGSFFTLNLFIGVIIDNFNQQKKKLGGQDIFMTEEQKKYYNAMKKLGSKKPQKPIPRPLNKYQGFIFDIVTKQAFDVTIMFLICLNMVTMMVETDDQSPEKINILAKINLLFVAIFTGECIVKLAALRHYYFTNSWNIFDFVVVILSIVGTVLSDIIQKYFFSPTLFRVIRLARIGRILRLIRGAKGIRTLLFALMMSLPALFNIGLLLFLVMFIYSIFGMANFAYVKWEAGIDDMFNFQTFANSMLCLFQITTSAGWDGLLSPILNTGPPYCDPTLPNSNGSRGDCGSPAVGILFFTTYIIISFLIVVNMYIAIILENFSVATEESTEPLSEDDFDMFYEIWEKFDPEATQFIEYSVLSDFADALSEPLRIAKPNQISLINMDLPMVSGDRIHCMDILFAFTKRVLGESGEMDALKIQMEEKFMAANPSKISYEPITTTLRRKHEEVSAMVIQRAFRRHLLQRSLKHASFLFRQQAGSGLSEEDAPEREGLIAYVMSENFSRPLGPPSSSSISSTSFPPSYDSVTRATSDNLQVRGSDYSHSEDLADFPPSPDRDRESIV

Work on `C[C@@]1(O)CC[C@H]2[C@H](CC[C@@H]3[C@@H]2CC[C@]2(C)[C@@H](C(=O)Cn4cc(C#N)cn4)CC[C@@H]32)C1` [ZURANOLONE] yielded a CLH [1] of 0.6 L/h/kg, a fraction unbound at 6 h, 10 µM [2] of 0.016 and a CLH [3] of 0.9 L/h/kg. The IC50 (Cytochrome P450 2C9) was greater than 30 µM, the bioavailability [4] was 62% and the IC50 [5] was greater than 30 µM. For the same compound, the clearance [6] was 1.5 L/h/kg, the Emax [7] was 574% and the Emax [8] was 473%. It also gave a CLint scaled at 10 µM [9] of 6.1 L/h/kg, an IC50 [10] of 0.007 µM and an IC50 [11] greater than 30 µM. For the same compound, the IC50 [12] was greater than 30 µM, the IC50 (Cytochrome P450 2D6) was greater than 30 µM and the EC50 [13] was 0.299 µM. The bioavailability [14] was 68%, the Kp at 0.5 h [15] was 4.2 and the CLhep predicted at 10 µM [16] was 4.2 L/h/kg. For the same compound, the Activity [17] was 57%, the CLhep predicted at 10 µM [18] was 2.2 L/h/kg and the fraction unbound at 6 h, 10 µM [19] was 0.012. For the same compound, the bioavailability [20] was 32%, the fraction unbound at 6 h, 10 µM [21] was 0.01 and the CLH [22] was 1 L/h/kg. For the same compound, the IC50 [23] was greater than 30 µM, the fraction unbound at 6 h, 10 µM [24] was 0.012 and the clearance [25] was 0.1 L/h/kg. For the same compound, the IC50 [26] was greater than 30 µM, the inhibition [27] was 88% and the solubility thermodynamic at 1 h, 10 µM [28] was 2 µM (≈ 0.819 µg/mL). It also gave an MEC (Mus musculus) of 85 nM, an IC50 [29] greater than 30 µM and an IC50 (Cytochrome P450 3A4) greater than 30 µM. The IC50 [30] was greater than 30 µM, the CLhep predicted at 10 µM [31] was 0.2 L/h/kg and the IC50 (Cytochrome P450 2C19) was greater than 30 µM. The CL (Canis familiaris) was less than 10%, the IC50 (Cytochrome P450 1A2) was greater than 30 µM and the clearance [32] was 1.4 L/h/kg. The CLH [33] was 0.6 L/h/kg, the IC50 [34] was greater than 30 µM and the IC50 (Cytochrome P450 2B6) was greater than 30 µM. It also gave a logD at 20 µM [35] of 4.6 and an inhibition [36] of 95%.
